Results from patent US10202378B2, “Therapeutic compounds and uses thereof” (GENENTECH, INC., priority 2015, dated 2019).

How the values were obtained:
[1] = biological target: TAF1-BD2 (Homo sapiens, UniProt P21675); assay: TAF1-BD2 TR-FRET Binding Assay; settings: read-out: TAF1-BD2 HTRF IC50
Description: IC50 Measurements for Inhibitors Using TAF1-BD2 TR-FRET Binding Assay
His/Flag epitope tagged TAF1-BD21504-1635 was cloned, expressed, and purified to homogeneity. TAF1-BD2 binding and inhibition was assessed by monitoring the engagement of a biotinylated small molecule compound 1000 with the target using the TR-FRET assay technology (Perkin-Elmer). Specifically, in a 384 well ProxiPlate, TAF1-BD2 (0.012 uM final) in 50 mM HEPES (pH 7.5; final), 50 mM NaCl (final), 1 mM TCEP (final), 0.1 mg/mL BSA (final), and 0.069 mM Brij-35 (final) was added either in the presence of DMSO (final 0.2% DMSO) or compound dilution series in DMSO. After a 10 minute incubation at room temperature, biotin-ligand (0.04 uM final) was added. After 10 minutes incubation at room temperature, a mixture Eu-W1024 Anti-6×His antibody (Perkin Elmer AD0110) and SureLight™ Streptavidin-Allophycocyanin (SA-APC, Perkin Elmer CR130-100) were added to a final concentration of 0.2 nM antibody and 0.025 uM SA-APC, respectively. After forty minutes of equilibration at room temperature, the plates were read on an Envision instrument and IC50s calculated using a four parameter logistic model (XLFIT).

[2] = biological target: TAF1-BD1 (Homo sapiens, UniProt P21675); assay: TAF1-BD1 TR-FRET Binding Assay; settings: read-out: TAF1-BD1 HTRF IC50
Description: IC50 Measurements for Inhibitors Using TAF1-BD1 TR-FRET Binding Assay
His/Flag epitope tagged TAF1-BD11381-1497 was cloned, expressed, and purified to homogeneity. TAF1-BD binding and inhibition was assessed by monitoring the engagement of a biotinylated small molecule compound 1000 with the target using the TR-FRET assay technology (Perkin-Elmer). Specifically, in a 384 well ProxiPlate, TAF1-BDI (0.08 uM final) in 50 mM HEPES (pH 7.5; final), 50 mM NaCl (final), 1 mM TCEP (final), 0.1 mg/mL BSA (final), and 0.069 mM Brij-35 (final) was added either in the presence of DMSO (final 0.2% DMSO) or compound dilution series in DMSO. After a 10 minute incubation at room temperature, biotin-ligand (0.08 uM final) was added. After 10 minutes incubation at room temperature, a mixture Eu-W1024 Anti-6×His antibody (Perkin Elmer ADO 110) and SureLight™ Streptavidin-Allophycocyanin (SA-APC, Perkin Elmer CR130-100) were added to final concentrations of 0.2 nM antibody and 0.05 uM SA-APC, respectively. After forty minutes of equilibration at room temperature, the plates were read on an Envision instrument and IC50s calculated using a four parameter logistic model (XLFIT).

Molecule	IC50 [1] [nM]	IC50 [2] [nM]
3-(hydroxymethyl)-4-(3-hydroxy-3-methyl-but-1-ynyl)-2,6-dimethyl-1H-pyrrolo[2,3-c]pyridin-7-one [Example 201]	2250	6050
CCOC(=O)c1c(C)[nH]c2c(=O)n(C)cc(C#CC(O)(c3ccccc3)C(F)(F)F)c12 (single isomer, unassigned) [Example 91a, ethyl 2,6-dimethyl-7-oxo-4-(4,4,4-trifluoro-3-hydroxy-3-phenyl-but-1-ynyl)-1H-pyrrolo[2,3-c]pyridine-3-carboxylate]	206	749
CCOC(=O)c1c(C)[nH]c2c(=O)n(C)cc(C#CC(O)(c3ccccc3)C(F)(F)F)c12 (single isomer, unassigned) [Example 91b, ethyl 2,6-dimethyl-7-oxo-4-(4,4,4-trifluoro-3-hydroxy-3-phenyl-but-1-ynyl)-1H-pyrrolo[2,3-c]pyridine-3-carboxylate]	42.2	184
CCOC(=O)c1c(C)[nH]c2c(=O)n(C)cc(C#CC(C)(O)C3CC3)c12 (single isomer, unassigned) [Example 92a, ethyl 4-(3-cyclopropyl-3-hydroxy-but-1-ynyl)-2,6-dimethyl-7-oxo-1H-pyrrolo[2,3-c]pyridine-3-carboxylate]	33.2	154
CCOC(=O)c1c(C)[nH]c2c(=O)n(C)cc(C#CC(C)(O)C3CC3)c12 (single isomer, unassigned) [Example 92b, ethyl 4-(3-cyclopropyl-3-hydroxy-but-1-ynyl)-2,6-dimethyl-7-oxo-1H-pyrrolo[2,3-c]pyridine-3-carboxylate]	230	1090
CCOC(=O)c1c(C)[nH]c2c(=O)n(C)cc(C#CC(O)(c3ccccc3)C(F)F)c12 (single isomer, unassigned) [Example 93a, ethyl 4-(4,4-difluoro-3-hydroxy-3-phenyl-but-1-ynyl)-2,6-dimethyl-7-oxo-1H-pyrrolo[2,3-c]pyridine-3-carboxylate]	65.5	599
CCOC(=O)c1c(C)[nH]c2c(=O)n(C)cc(C#CC(O)(c3ccccc3)C(F)F)c12 (single isomer, unassigned) [Example 93b, ethyl 4-(4,4-difluoro-3-hydroxy-3-phenyl-but-1-ynyl)-2,6-dimethyl-7-oxo-1H-pyrrolo[2,3-c]pyridine-3-carboxylate]	21.4	176
Cc1[nH]c2c(=O)n(C)cc(C#CC(C)(O)C3CC3)c2c1-c1nnc(C2CCOC2)o1 (single isomer, unassigned) [Example 96a, 4-(3-cyclopropyl-3-hydroxy-but-1-ynyl)-2,6-dimethyl-3-(5-tetrahydrofuran-3-yl-1,3,4-oxadiazol-2-yl)-1H-pyrrolo[2,3-c]pyridin-7-one]	40.7	182
Cc1[nH]c2c(=O)n(C)cc(C#CC(C)(O)C3CC3)c2c1-c1nnc(C2CCOC2)o1 (single isomer, unassigned) [Example 96b, 4-(3-cyclopropyl-3-hydroxy-but-1-ynyl)-2,6-dimethyl-3-(5-tetrahydrofuran-3-yl-1,3,4-oxadiazol-2-yl)-1H-pyrrolo[2,3-c]pyridin-7-one]	260	1140
Cc1[nH]c2c(=O)n(C)cc(C#CC(C)(O)C3CC3)c2c1-c1nnc(C(C)(C)C)o1 (single isomer, unassigned) [Example 98a, 3-(5-tert-butyl-1,3,4-oxadiazol-2-yl)-4-(3-cyclopropyl-3-hydroxy-but-1-ynyl)-2,6-dimethyl-1H-pyrrolo[2,3-c]pyridin-7-one]	227	728
Cc1[nH]c2c(=O)n(C)cc(C#CC(C)(O)C3CC3)c2c1-c1nnc(C(C)(C)C)o1 (single isomer, unassigned) [Example 98b, 3-(5-tert-butyl-1,3,4-oxadiazol-2-yl)-4-(3-cyclopropyl-3-hydroxy-but-1-ynyl)-2,6-dimethyl-1H-pyrrolo[2,3-c]pyridin-7-one]	33.9	108
CCOC(=O)c1c(C)[nH]c2c(=O)n(C)cc(C#CC3(O)CCc4cccnc43)c12 (single isomer, unassigned) [Example 99a, ethyl 4-[2-(7-hydroxy-5,6-dihydrocyclopenta[b]pyridin-7-yl)ethynyl]-2,6-dimethyl-7-oxo-1H-pyrrolo[2,3-c]pyridine-3-carboxylate]	1180	2930
CCOC(=O)c1c(C)[nH]c2c(=O)n(C)cc(C#CC3(O)CCc4cccnc43)c12 (single isomer, unassigned) [Example 99b, ethyl 4-[2-(7-hydroxy-5,6-dihydrocyclopenta[b]pyridin-7-yl)ethynyl]-2,6-dimethyl-7-oxo-1H-pyrrolo[2,3-c]pyridine-3-carboxylate]	84.4	881
CCOC(=O)c1c(C)[nH]c2c(=O)n(C)cc(C#C[C@@H]3CCC[C@H]3O)c12 (stereo in doubt) [Example 83, ethyl 4-[2-(2-hydroxycyclopentyl)ethynyl]-2,6-dimethyl-7-oxo-1H-pyrrolo[2,3-c]pyridine-3-carboxylate]	302	2590
CCOC(=O)c1c(C)[nH]c2c(=O)n(C)cc(C#C[C@@H]3CCCC[C@H]3O)c12 (stereo in doubt) [Example 84, ethyl 4-[2-(2-hydroxycyclohexyl)ethynyl]-2,6-dimethyl-7-oxo-1H-pyrrolo[2,3-c]pyridine-3-carboxylate]	187	2000
CCOC(=O)c1c(C)[nH]c2c(=O)n(C)cc(C#CC(O)(c3cccnc3)C(F)(F)F)c12 (stereo not drawn) [Example 1, ethyl 2,6-dimethyl-7-oxo-4-(4,4,4-trifluoro-3-hydroxy-3-(3-pyridyl)but-1-ynyl)-1H-pyrrolo[2,3-c]pyridine-3-carboxylate]	80.4	312
CCOC(=O)c1c(C)[nH]c2c(=O)n(C)cc(C#CC(O)(c3cccc(N)c3)C(F)(F)F)c12 (stereo not drawn) [Example 2, ethyl 4-[3-(3-aminophenyl)-4,4,4-trifluoro-3-hydroxy-but-1-ynyl]-2,6-dimethyl-7-oxo-1H-pyrrolo[2,3-c]pyridine-3-carboxylate]	45.3	249
CCOC(=O)c1c(C)[nH]c2c(=O)n(C)cc(C#C[C@](C)(O)c3ncccn3)c12 [Example 5, ethyl 4-[(3S)-3-hydroxy-3-pyrimidin-2-yl-but-1-ynyl]-2,6-dimethyl-7-oxo-1H-pyrrolo[2,3-c]pyridine-3-carboxylate]	1630	8350
CCOC(=O)c1c(C)[nH]c2c(=O)n(C)cc(C#C[C@@](C)(O)c3ncccn3)c12 [Example 6, ethyl 4-[(3R)-3-hydroxy-3-pyrimidin-2-yl-but-1-ynyl]-2,6-dimethyl-7-oxo-1H-pyrrolo[2,3-c]pyridine-3-carboxylate]	147	989
CCOC(=O)c1c(C)[nH]c2c(=O)n(C)cc(C#CC3(O)CCN(CC)CC3)c12 [Example 8, ethyl 4-[2-(1-ethyl-4-hydroxy-4-piperidyl)ethynyl]-2,6-dimethyl-7-oxo-1H-pyrrolo[2,3-c]pyridine-3-carboxylate]	425	7850
CCOC(=O)c1c(C)[nH]c2c(=O)n(C)cc(C#CC3(O)CCN(C)CC3)c12 [Example 9, ethyl 4-[2-(4-hydroxy-1-methyl-4-piperidyl)ethynyl]-2,6-dimethyl-7-oxo-1H-pyrrolo[2,3-c]pyridine-3-carboxylate]	815	14500
CCOC(=O)c1c(C)[nH]c2c(=O)n(C)cc(C#CC3(O)CCNCC3)c12 [Example 12, ethyl 4-[2-(4-hydroxy-4-piperidyl)ethynyl]-2,6-dimethyl-7-oxo-1H-pyrrolo[2,3-c]pyridine-3-carboxylate]	429	757
CCOC(=O)c1c(C)[nH]c2c(=O)n(C)cc(C#CC3(C)COC3)c12 [Example 13, ethyl 2,6-dimethyl-4-[2-(3-methyloxetan-3-yl)ethynyl]-7-oxo-1H-pyrrolo[2,3-c]pyridine-3-carboxylate]	379	434
CCOC(=O)c1c(C)[nH]c2c(=O)n(C)cc(C#CC(C)(C)CO)c12 [Example 15, ethyl 4-(4-hydroxy-3,3-dimethyl-but-1-ynyl)-2,6-dimethyl-7-oxo-1H-pyrrolo[2,3-c]pyridine-3-carboxylate]	189	343
